{"source": "patent US20240082125A1", "about": "“USE OF A SHORT CHAIN FATTY ACID AS ANTIDANDRUFF AGENT” (NANYANG TECHNOLOGICAL UNIVERSITY, priority 2020, published 2024)", "key": {"C. acnes ATCC 6919": {"test_system": "C. acnes ATCC 6919", "experiment": "C. acnes growth assay, colony forming units", "assay_type": "cell-based, Cutibacterium acnes", "settings": "for C. acnes (log10 CFUs/ml): 50 mM, after 72 hours, replicates #1-#3; for growth of C. acnes: 30 mM, MBHI medium pH 7, anaerobic, FIG. 2", "method": "(§1) M. restricta ATCC MYA-4611, S. epidermidis ATCC 12228, and C. acnes ATCC 6919 were purchased from ATCC. M. restricta was routinely cultured in modified Dixon (MD) medium (pH 6), composed of 36 g of Malt extract (Sigma 70167), 20 g of Dessicated Oxbile (Sigma 70168), 6 g of Bacto™ Peptone (BD 211677), 1% (v/v) Tween 40 (Sigma P1504), 0.2% (v/v) Oleic Acid (Fluka 75096), and 0.2% (v/v) Glycerol (Promega H5433) in 1 liter of dH2O. C. acnes and S. epidermidis were cultured in modified brain heart infusion (MBHI) medium (pH 7), containing 37 g of BHI base (Accumedia 7116B), 0.4% (v/v) of Tween-40 (Sigma P1504), 0.2% (v/v) of Oleic acid (Fluka 75096), and 0.2% (v/v) of Glycerol (Promega H5433) in 1 liter of dH2O. M. restricta and S. epidermidis were routinely grown under aerobic conditions, shaken at 200 rpm, and C. acnes was grown under anaerobic conditions. All organisms were grown at 33° C. Wherever required, media was supplemented with: sodium acetate (CH3COOH, Sigma Ref. 32319), sodium propionate ([…], Sigma Ref. P1880), sodium butyrate (CH3(CH2)2COOH, Sigma Ref. 303410), valeric acid (CH3(CH2)3COOH, Fluka Ref. 75054). For valeric acid, the pH in modified cell media was neutralized with NaOH (Sodium hydroxide, Sigma 283060).\n(§2) M. restricta cells stored as glycerol stocks (30% glycerol in MD medium) were revived by plating on MD agar plates and incubated for 2-3 days at 33° C. A pre-culture was made from the lawn of cells grown on the agar plate. Cells from % of the plate was scrapped off, homogenized after suspending in 70 ml of MD medium in a 250 ml baffled erlenmeyer flask and incubated for 24 hours at 33° C. at 200 rpm. For experiments, 10^7 cell/ml was inoculated in fresh MD medium with or without the short chain fatty acids. Growth was monitored by measuring the cell density with SYTO 9 for up to 24 hours or 96 hours. C. acnes and S. epidermidis were inoculated into MBHI medium at starting cell density of OD600 0.05 and 0.25, respectively. Bacterial growth was measured by plating the serially diluted cultures on Brain Heart Infusion agar plates at different time points and colonies were counted after 72 hours for C. acnes and 24 hours for S. epidermidis.\n(§3) Bacterial growth was quantified by plating the serially diluted cultures on Brain Heart Infusion agar plates at different time points and colonies were counted after 72 hours for C. acnes and 24 hours for Staphylococcus sp.\n(§4) M. restricta ATCC MYA-4611, S. epidermidis ATCC 12228 and C. acnes ATCC 6919 were purchased from ATCC. M. restricta were routinely cultured in Modified Dixon (MD) medium (pH 6), composed of 36 g of Malt extract (Sigma 70167), 20 g of Dessicated Oxbile (Sigma 70168), 6 g of Bacto™ Peptone (BD 211677), 1% (v/v) Tween 40 (Sigma P1504), 0.2% (v/v) Oleic Acid (Fluka 75096), and 0.2% (v/v) Glycerol (Promega H5433) in 1 liter of dH2O. C. acnes and S. epidermidis were cultured in modified brain heart infusion (MBHI) medium (pH 7), containing 37 g of BHI base (Accumedia 7116B), 0.4% (v/v) of Tween-40 (Sigma P1504), 0.2% (v/v) of Oleic acid (Fluka 75096), and 0.2% (v/v) of Glycerol (Promega H5433) in 1 liter of dH2O. M. restricta and S. epidermidis were routinely grown under aerobic conditions, shaken at 200 rpm, and C. acnes was grown under anaerobic conditions. All organisms were grown at 33° C. Wherever required, media was supplemented with 50 mM of: sodium propionate ([…], Sigma Ref. P1880), sodium butyrate (CH3(CH2)2COOH, Sigma Ref. 303410), valeric acid (CH3(CH2)3COOH, Fluka Ref. 75054). For valeric acid, the pH in modified cell media was neutralized with NaOH (Sodium hydroxide, Sigma 283060).\n(§5) M. restricta cells stored as glycerol stocks (30% glycerol in MD medium) were revived by plating on MD agar plates and incubated for 2-3 days at 33° C. A pre-culture was made from the lawn of cells grown on the agar plate."}, "[1]": {"test_system": "S. epidermidis ATCC 12228", "experiment": "S. epidermidis growth assay, colony forming units", "assay_type": "cell-based, Staphylococcus epidermidis", "settings": "for S. epidermidis (log10 CFUs/ml): 50 mM, after 24 hours, replicates #1-#3; for growth of S. epidermidis: 30 mM, MBHI medium pH 7, aerobic, FIG. 3", "method": "as §1, §2, §3, §4, §5"}, "[2]": {"test_system": "M. restricta ATCC MYA-4611", "experiment": "M. restricta cell viability by ATP estimation (BacTiterGlo)", "assay_type": "cell-based, Malassezia restricta", "settings": "50 mM, ATP in lysate of 24 hours grown cells, replicates #1-#3", "method": "M. restricta ATCC MYA-4611, S. epidermidis ATCC 12228 and C. acnes ATCC 6919 were purchased from ATCC. M. restricta were routinely cultured in Modified Dixon (MD) medium (pH 6), composed of 36 g of Malt extract (Sigma 70167), 20 g of Dessicated Oxbile (Sigma 70168), 6 g of Bacto™ Peptone (BD 211677), 1% (v/v) Tween 40 (Sigma P1504), 0.2% (v/v) Oleic Acid (Fluka 75096), and 0.2% (v/v) Glycerol (Promega H5433) in 1 liter of dH2O. C. acnes and S. epidermidis were cultured in modified brain heart infusion (MBHI) medium (pH 7), containing 37 g of BHI base (Accumedia 7116B), 0.4% (v/v) of Tween-40 (Sigma P1504), 0.2% (v/v) of Oleic acid (Fluka 75096), and 0.2% (v/v) of Glycerol (Promega H5433) in 1 liter of dH2O. […]\nM. restricta cells stored as glycerol stocks (30% glycerol in MD medium) were revived by plating on MD agar plates and incubated for 2-3 days at 33° C. […] Growth was monitored by measuring the cell density with SYTO 9 or by estimating the ATP concentration (see below) for up to 24 hours or 96 hours. […] Bacterial growth was measured by plating the serially diluted cultures on Brain Heart Infusion agar plates at different time points and colonies were counted after 72 hours for C. acnes and 24 hours for S. epidermidis.\nCellular ATP was measured using the BacTiterGlo Microbial cell viability (Promega) kit following manufacturers protocol. […]"}, "[3]": {"test_system": "M. restricta ATCC MYA-4611", "experiment": "M. restricta growth assay, total cell numbers by SYTO9 fluorescence", "assay_type": "cell-based, Malassezia restricta", "settings": "for growth of Malassezia restricta: 30 mM, MD medium pH 6, FIG. 1; for M. restricta (log10 total cell counts): 50 mM, after 72 hours, SYTO9, starting density 1×10^7 cells/ml, replicates #1-#3", "method": "as §1\nM. restricta cells from 1 ml of the culture were harvested by centrifugation at 10,000×g for 5 minutes at room temperature. Cells were washed once, pelleted, and re-suspended in 0.9% NaCl solution. Equal volumes of the above cell suspension and SYTO 9 working stock (3 ul SYTO 9 component of the Live/Dead BacLight bacterial viability kit, ThermoFisher Scientific, L7012, diluted in 1 ml of 0.9% NaCl solution) were mixed well, incubated in dark for 10 minutes, and fluorescent intensity unit was measured in a Tecan microplate reader with excitation/emission wavelengths of 485/530 nm. A standard for correlation of fluorescence units and concentration was prepared using a fluorimeter and hemocytometer under a light microscope. This standard curve was used to calculate the total cell numbers.\nas §2\nM. restricta ATCC MYA-4611, S. epidermidis ATCC 12228 and C. acnes ATCC 6919 were purchased from ATCC. M. restricta were routinely cultured in Modified Dixon (MD) medium (pH 6), composed of 36 g of Malt extract (Sigma 70167), 20 g of Dessicated Oxbile (Sigma 70168), 6 g of Bacto™ Peptone (BD 211677), 1% (v/v) Tween 40 (Sigma P1504), 0.2% (v/v) Oleic Acid (Fluka 75096), and 0.2% (v/v) Glycerol (Promega H5433) in 1 liter of dH2O. C. acnes and S. epidermidis were cultured in modified brain heart infusion (MBHI) medium (pH 7), containing 37 g of BHI base (Accumedia 7116B), 0.4% (v/v) of Tween-40 (Sigma P1504), 0.2% (v/v) of Oleic acid (Fluka 75096), and 0.2% (v/v) of Glycerol (Promega H5433) in 1 liter of dH2O. M. restricta and S. epidermidis were routinely grown under aerobic conditions, shaken at 200 rpm, and C. acnes was grown under anaerobic conditions. All organisms were grown at 33° C."}}, "note": "“And” between values parts separate entries of the source, which are not always exact repeats. Identical values can stand only once."}
{"smiles": "CCCCCCCC(=O)OCC(O)CO", "note": "(stereo not shown) [GM_Cpy, glyceryl mono caprylate]", "values": [{"measurement": "C. acnes (log10 CFUs/ml)", "setting": "C. acnes ATCC 6919", "value": 0.00, "unit": "log10 CFUs/ml"}, {"measurement": "S. epidermidis (log10 CFUs/ml)", "setting": "[1]", "value": 0.00, "unit": "log10 CFUs/ml"}, {"measurement": "M. restricta (Relative luminescence units)", "setting": "[2]", "value": "16700 Relative luminescence units and −1470 Relative luminescence units and −2030 Relative luminescence units"}]}
{"smiles": "CCCC(=O)[O-].[Na+]", "note": "[NaB, sodium butyrate]", "values": [{"measurement": "growth of Malassezia restricta", "setting": "[3]", "value": "completely inhibit"}, {"measurement": "M. restricta (log10 total cell counts)", "setting": "[3]", "value": "6.94 log10 total cell counts and 6.88 log10 total cell counts (2×)"}, {"measurement": "growth of C. acnes", "setting": "C. acnes ATCC 6919", "value": "do not affect"}, {"measurement": "C. acnes (log10 CFUs/ml)", "setting": "C. acnes ATCC 6919", "value": "8.26 log10 CFUs/ml and 8.10 log10 CFUs/ml and 8.34 log10 CFUs/ml"}, {"measurement": "growth of S. epidermidis", "setting": "[1]", "value": "do not affect"}, {"measurement": "S. epidermidis (log10 CFUs/ml)", "setting": "[1]", "value": "9.15 log10 CFUs/ml and 8.87 log10 CFUs/ml and 8.90 log10 CFUs/ml"}]}
{"smiles": "CCCCCCCC(=O)O", "note": "[Cpy, caprylic acid]", "values": [{"measurement": "M. restricta (log10 total cell counts)", "setting": "[3]", "value": "6.98 log10 total cell counts and 6.91 log10 total cell counts and 6.84 log10 total cell counts"}, {"measurement": "C. acnes (log10 CFUs/ml)", "setting": "C. acnes ATCC 6919", "value": 0.00, "unit": "log10 CFUs/ml"}, {"measurement": "S. epidermidis (log10 CFUs/ml)", "setting": "[1]", "value": "3.34 log10 CFUs/ml and 3.03 log10 CFUs/ml and 3.00 log10 CFUs/ml"}]}
{"smiles": "CC(=O)[O-].[Na+]", "note": "[acetate, sodium acetate]", "values": [{"measurement": "growth of Malassezia restricta", "setting": "[3]", "value": "No effect"}]}
{"smiles": "CCCCC(=O)[O-].[Na+]", "note": "[NaV, sodium valerate]", "values": [{"measurement": "growth of Malassezia restricta", "setting": "[3]", "value": "completely inhibit"}, {"measurement": "M. restricta (log10 total cell counts)", "setting": "[3]", "value": "6.86 log10 total cell counts and 6.92 log10 total cell counts and 6.93 log10 total cell counts"}, {"measurement": "growth of C. acnes", "setting": "C. acnes ATCC 6919", "value": "do not affect"}, {"measurement": "C. acnes (log10 CFUs/ml)", "setting": "C. acnes ATCC 6919", "value": "8.90 log10 CFUs/ml and 8.03 log10 CFUs/ml and 8.00 log10 CFUs/ml"}, {"measurement": "growth of S. epidermidis", "setting": "[1]", "value": "do not affect"}, {"measurement": "S. epidermidis (log10 CFUs/ml)", "setting": "[1]", "value": "8.90 log10 CFUs/ml and 9.29 log10 CFUs/ml and 9.08 log10 CFUs/ml"}]}
{"smiles": "CCCCCC(=O)O", "note": "[Cpo, caproic acid]", "values": [{"measurement": "M. restricta (log10 total cell counts)", "setting": "[3]", "value": "6.93 log10 total cell counts and 6.95 log10 total cell counts and 6.87 log10 total cell counts"}, {"measurement": "C. acnes (log10 CFUs/ml)", "setting": "C. acnes ATCC 6919", "value": "8.29 log10 CFUs/ml and 8.26 log10 CFUs/ml and 8.41 log10 CFUs/ml"}, {"measurement": "S. epidermidis (log10 CFUs/ml)", "setting": "[1]", "value": "7.64 log10 CFUs/ml and 7.67 log10 CFUs/ml and 7.57 log10 CFUs/ml"}]}
{"smiles": "CCC(=O)[O-].CCC(=O)[O-].[Zn+2]", "note": "[Zn_Pro, zinc propionate]", "values": [{"measurement": "C. acnes (log10 CFUs/ml)", "setting": "C. acnes ATCC 6919", "value": 0.00, "unit": "log10 CFUs/ml"}, {"measurement": "S. epidermidis (log10 CFUs/ml)", "setting": "[1]", "value": "5.00 log10 CFUs/ml and 5.05 log10 CFUs/ml and 0.00 log10 CFUs/ml"}, {"measurement": "M. restricta (Relative luminescence units)", "setting": "[2]", "value": "12500 Relative luminescence units and 11900 Relative luminescence units and 10300 Relative luminescence units"}]}
{"smiles": "CCCCCC(=O)OCC", "note": "[EH_Cpo, ethyl caproate]", "values": [{"measurement": "M. restricta (log10 total cell counts)", "setting": "[3]", "value": "6.80 log10 total cell counts and 6.69 log10 total cell counts and 6.74 log10 total cell counts"}, {"measurement": "C. acnes (log10 CFUs/ml)", "setting": "C. acnes ATCC 6919", "value": "9.94 log10 CFUs/ml and 8.47 log10 CFUs/ml and 8.00 log10 CFUs/ml"}, {"measurement": "S. epidermidis (log10 CFUs/ml)", "setting": "[1]", "value": "5.55 log10 CFUs/ml and 5.54 log10 CFUs/ml and 5.66 log10 CFUs/ml"}]}
